In US10130651B2, “RNAi Therapy for Hepatitis B Virus Infection” (Arrowhead Pharmaceuticals, Inc., priority 2015, dated 2018):
Ends that are not written are not given here.

Tests used:
Assay type in all cases: in vivo, NOD-SCID mice (pHBV model)
[1] = test system: Hepatitis B surface antigen (HBsAg), Hepatitis B Virus; assay: Serum HBsAg (ELISA) in pHBV model mice after IV MLP delivery peptide+HBV RNAi triggers (Example 7); conditions: 8 mg/kg MLP delivery peptide without HBV RNAi triggers
Description: (§1) At day −42, 6 to 8 week old female NOD.CB17-Prkdscid/NcrCrl (NOD-SCID) mice were transiently transfected in vivo with MC-HBV1.3 by hydrodynamic tail vein injection (Yang P L et al. “Hydrodynamic injection of viral DNA: a mouse model of acute hepatitis B virus infection.” PNAS USA 2002 Vol. 99: p. 13825-13830). MC-HBV1.3 is a plasmid-derived minicircle that contains the same terminally redundant human hepatitis B virus sequence HBV1.3 as in the HBV1.3.32 transgenic mice (GenBank accession #V01460) (Guidotti L G et al. “High-level hepatitis B virus replication in transgenic mice. J Virol 1995 Vol. 69, p 6158-6169.). […] At day −21, three weeks post transfection, Hepatitis B surface antigen (HBsAg) HBsAg expression levels in serum were measured by ELISA and the mice were grouped according to average HBsAg expression levels. […]
(§2) At various times, before and after administration of MLP delivery peptide+HBV RNAi triggers, isotonic glucose, or MLP delivery peptide alone, serum HBsAg, serum HBV DNA, or liver HBV RNA were measured. […]
Serum was collected and diluted 10 to 2000-fold in PBS containing 5% nonfat dry milk. […] HBsAg levels were determined with a GS HBsAg EIA 3.0 kit (Bio-Rad Laboratories, Inc., Redmond, Wash.) as described by the manufacturer. […]

[2] = Clinical chemistry (liver and renal function) in pHBV model mice; conditions: day 2 (24 hours post-injection) vs day −1
Protocol: Clinical chemistry markers in mouse serum were measured using a COBAS Integra 400 (Roche Diagnostics, Indianapolis, Ind.) chemical analyzer according to the manufacturer's instructions.
Liver and renal functions were evaluated on day −1 (pre-injection) and day 2 (24 hours post-injection).

[3] = test system: HBV DNA, Hepatitis B Virus; assay: Serum HBV DNA (qPCR) in pHBV model mice (Example 7); conditions: 8 mg/kg MLP delivery peptide without HBV RNAi triggers
Description: as §1, §2
The number of copies of HBV genomes in DNA isolated from the pHBV mouse model serum was determined by qPCR. […]
qPCR assays were performed on a 7500 Fast or StepOne Plus Real-Time PCR system (Life Technologies). […] Quantitations of HBV DNA and recovery control plasmid were determined by qPCR reactions performed in triplicate. […]

**Q.** With “MLP delivery peptide: MLP SEQ ID NO: 650 (GIL MLP, L-form) reversibly masked with CDM-NAG (LIGAILKVLATGLPTLISWIKNKRKQ; also: reversibly masked with CDM-NAG)” as the substance, how does the “HBsAg levels in serum” value [1] read?
**A.** The value was “comparable to levels in mice that received a single injection of isotonic glucose”.

**Q.** What about the evidence of toxicity [2] of the same substance?
**A.** Its evidence of toxicity is “nor was there any evidence of toxicity”.

**Q.** What about the “HBV DNA levels in serum” value [3] of the same substance?
**A.** Its value is “comparable to levels in mice that received a single injection of isotonic glucose”.
